In publication PMC9402538, “Rational design of a sensitivity-enhanced tracer for discovering efficient APC–Asef inhibitors” (Nature Communications, 2022):
Values joined by “and” are separate entries in the source; they are usually repeats but may differ in a detail not shown here. Equal entries are not always repeated. Where two headings read alike, the source gives them in different places. Where a SMILES comes first, the peptide text is derived from it. The star is where a group is joined. Pyrrole(1-Me-2-CO) = Cn1cccc1C(=O)*; Pyrrole2CO = O=C(c1ccc[nH]1)*; Picolinoyl = O=C(c1ccccn1)*

Columns and labels:
LS-174T cells = assay: DBZ-induced goblet cell differentiation of LS-174T cells (RT-PCR); assay type: cell-based; conditions: 1 μM DBZ
Experimental: . Notch inhibition by dibenzazepine (DBZ) allows colorectal stem cells to differentiate into goblet cells, and the DBZ-induced goblet cell differentiation of LS-174T cells is a well-established intestinal differentiation model. […].
Total RNA was extracted using TRIzol reagent (Takara Bio Inc., Japan) following the manufacturer’s instructions. Total RNA (1 μg) was reverse-transcribed into cDNA using the PrimeScript RT Kit (Takara Bio Inc., Japan). Quantitative real-time reverse transcription-PCR was performed using a SYBR Green kit (Vazyme, China). β-Actin mRNA was employed as a reference gene for expression normalization. The qPCR primer sequences are listed in Supplementary Table 8. […]
Supplementary Fig. 17. Effect of […] on apoptosis and cell differentiation. a,b) Flow cytometry apoptosis analysis of SW480 (a) and HIEC-6 (b) cells treated with 25 μM MAIT -516 for 48 h, the gating strategy is shown for control sample . c) RT-PCR analysis of genes involved in intestinal cell differentiation ( MUC2, ATOH1, HES1, SPDEF and TFF3) in LS-174T cells. LS-174T cells were treated […]
mean ± SD (n = 3 independent experiments). p values were calculated by one-way ANOVA with Tukey’s multiple comparisons test.
Source data are provided as a Source Data file.
(1 picture or pasted object on this page, not shown here)

APC = target: T1, APC (Homo sapiens, UniProt P25054); assay: FP competitive assay using tracer 1; assay type: binding; conditions: for IC50: Supplementary Table 4, read-out: IC50, Tracer 1; for FP(mp): Tracer 1, triplicate raw readings
T1 sequence (P25054 303-739): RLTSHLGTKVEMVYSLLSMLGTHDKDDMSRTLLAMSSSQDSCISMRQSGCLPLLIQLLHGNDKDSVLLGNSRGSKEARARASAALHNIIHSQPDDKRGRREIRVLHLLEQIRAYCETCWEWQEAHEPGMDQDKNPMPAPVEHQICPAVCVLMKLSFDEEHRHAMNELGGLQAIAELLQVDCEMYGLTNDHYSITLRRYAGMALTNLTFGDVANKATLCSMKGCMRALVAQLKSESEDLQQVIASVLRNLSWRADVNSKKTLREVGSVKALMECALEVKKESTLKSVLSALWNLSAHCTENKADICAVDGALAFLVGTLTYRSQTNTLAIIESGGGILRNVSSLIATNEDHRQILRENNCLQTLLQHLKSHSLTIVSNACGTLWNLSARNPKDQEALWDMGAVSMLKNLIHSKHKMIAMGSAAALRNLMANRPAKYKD
Experimental: In our previous study, we established an FP assay for screening APC–Asef inhibitors using FITC-labeled tracer 1 (Ac–^176[…][FITC]^195–NH2)[16]. […]. However, their Kd values measured by isothermal titration calorimetry (ITC) actually vary up to more than 20 times[16],[17]. […].
FITC-labeled tracer peptides were obtained from Changzhou Kanglong Biotech Ltd. (Changzhou, Jiangsu, China). […]. The FP signal changes upon tracer binding were measured after 1.5 h of incubation using a Synergy neo microplate reader (BioTek Instruments, Inc.) and plotted against the protein concentration. The corresponding EC50 values were generated by fitting the curves with a nonlinear regression model. […]. To make a working solution, APC (303–739) was diluted in FP buffer (50 mM HEPES, pH 7.5, 300 mM NaCl, 1 mM EDTA, 1 mM DTT). […] The FP signals were measured after 1.5 h of incubation at room temperature using a Synergy neo microplate reader. Three controls were included on each plate, i.e., blank (without protein and tracer), 100% inhibition (free tracer only), and 0% inhibition (protein/tracer complex only) controls. All experiments were performed in triplicate. The IC50 values of peptides were calculated by nonlinear regression analysis using GraphPad Prism 7.0 software.

APC (303–739) = target: T2, APC (303–739) (Homo sapiens, UniProt P25054); assay: FP competitive assay using tracer 7; assay type: binding; conditions: for IC50: Table 3 source data; for FP(mp): Tracer 7, replicate wells
T2 sequence (P25054 303-739): T1 sequence (P25054 303-739)
Procedure, shortened: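 Peptide dilutions were first incubated 1 h at room temperature with APC (303–739) in HEPES pH 7.5 buffer containing 300 mM NaCl, EDTA and DTT. Added FITC tracer 7 (400 nM stock) displaced over a further 1.5 h before polarization reading. IC50 values came from nonlinear regression fits of triplicate data.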

[1] = Repeat 1, read-out: IC50(μM) Repeat 1
[2] = Repeat 2, read-out: IC50(μM) Repeat 2
[3] = Repeat 3, read-out: IC50(μM) Repeat 3
[4] = mean of 3 repeats, read-out: IC50(μM) mean

Row | SMILES | IC50 (APC) [nM] | FP(mp) (APC; Conc. 0.05 μM) | FP(mp) (APC; Conc. 0.10 μM) | FP(mp) (APC; Conc. 0.20 μM) | FP(mp) (APC; Conc. 0.39 μM) | FP(mp) (APC; Conc. 0.78 μM) | FP(mp) (APC; Conc. 1.56 μM) | FP(mp) (APC; Conc. 3.13 μM) | FP(mp) (APC; Conc. 6.25 μM) | FP(mp) (APC; Conc. 12.50 μM) | FP(mp) (APC; Conc. 25.00 μM) | FP(mp) (APC; Conc. 50.00 μM) | FP(mp) (APC; Conc. 100.00 μM) | FP(mp) (APC; Conc. 200.00 μM) | FP(mp) (APC; Conc. 400.00 μM) | IC50 (APC (303–739); [1]) [µM] | IC50 (APC (303–739); [2]) [µM] | IC50 (APC (303–739); [3]) [µM] | FP(mp) (APC (303–739); Conc. 0.0061 μM) | FP(mp) (APC (303–739); Conc. 0.0122 μM) | other results
1 | C[C@H](NC(=O)Cc1cc(F)cc(F)c1)C(=O)N[C@@H]1C(=O)N(C)c2ccccc2-c2ccccc21 [DBZ, dibenzazepine] | – | – | – | – | – | – | – | – | – | – | – | – | – | – | – | – | – | – | – | – | mRNA level of NOTCH target gene HES1 (LS-174T cells): significantly suppressed; mRNA levels of goblet cell markers (MUC2, TFF3, ATOH1, SPDEF) (LS-174T cells): increasing the mRNA levels
2 | CC(C)C[C@H](NC(=O)[C@H](CO)NC(=O)[C@H](CCC(=O)O)NC(=O)CNC(=O)[C@H](C)NC(=O)c1ccc[nH]1)C(=O)N[C@@H](Cc1ccc(O)cc1)C(=O)N[C@@H](CCC(=O)O)C(N)=O [MAI-509] (Pyrrole2CO-AGESLYE-NH2) | 640 ± 170 | 182 mp and 179 mp | 180 mp and 177 mp | 175 mp and 169 mp and 173 mp | 157 mp and 159 mp and 160 mp | 120 mp and 128 mp and 126 mp | 72 mp and 73 mp | 56 mp and 54 mp | 52 mp and 55 mp and 51 mp | 50 mp and 51 mp and 47 mp | 50 mp and 48 mp | 48 mp and 50 mp and 46 mp | 50 mp and 51 mp and 47 mp | 48 mp and 50 mp | 57 mp and 53 mp | 0.595 | 0.526 | 0.599 | 288 mp and 294 mp and 291 mp | 287 mp and 290 mp and 289 mp | FP(mp) (APC (303–739); Conc. 0.0244 μM): 290 mp (2×) and 292 mp; FP(mp) (APC (303–739); Conc. 0.05 μM): 281 mp and 276 mp and 278 mp; FP(mp) (APC (303–739); Conc. 0.10 μM): 261 mp and 262 mp and 266 mp; FP(mp) (APC (303–739); Conc. 0.20 μM): 233 mp and 232 mp and 238 mp; FP(mp) (APC (303–739); Conc. 0.39 μM): 196 mp and 201 mp and 193 mp; FP(mp) (APC (303–739); Conc. 0.78 μM): 163 mp and 164 mp (2×); FP(mp) (APC (303–739); Conc. 1.56 μM): 129 mp and 126 mp (2×); FP(mp) (APC (303–739); Conc. 3.13 μM): 103 mp and 101 mp (2×); FP(mp) (APC (303–739); Conc. 6.25 μM): 81 mp and 84 mp and 83 mp; FP(mp) (APC (303–739); Conc. 12.50 μM): 71 mp and 69 mp and 67 mp; FP(mp) (APC (303–739); Conc. 25.00 μM): 65 mp and 63 mp (2×); FP(mp) (APC (303–739); Conc. 50.00 μM): 63 mp and 60 mp (2×); IC50 (APC (303–739); [4]): 0.573 µM
3 | CC(C)C[C@H](NC(=O)[C@H](CO)NC(=O)[C@H](CCC(=O)O)NC(=O)CNC(=O)[C@H](C)NC(=O)c1cccn1C)C(=O)N[C@@H](Cc1ccc(O)cc1)C(=O)N[C@@H](CCC(=O)O)C(N)=O [MAI-510] ({Pyrrole(1-Me-2-CO)}-AGESLYE-NH2) | 490 ± 130 | 182 mp and 181 mp and 180 mp | 170 mp and 178 mp and 179 mp | 158 mp and 172 mp | 146 mp and 158 mp and 159 mp | 82 mp and 112 mp and 116 mp | 61 mp and 63 mp and 64 mp | 52 mp and 51 mp and 53 mp | 51 mp and 50 mp | 49 mp and 48 mp | 49 mp and 46 mp and 48 mp | 46 mp and 47 mp and 50 mp | 48 mp and 49 mp and 50 mp | 48 mp and 47 mp | 50 mp and 52 mp | 0.366 | 0.34 | 0.303 | 303 mp | 296 mp and 295 mp and 301 mp | FP(mp) (APC (303–739); Conc. 0.0244 μM): 291 mp and 290 mp and 295 mp; FP(mp) (APC (303–739); Conc. 0.05 μM): 274 mp and 278 mp and 275 mp; FP(mp) (APC (303–739); Conc. 0.10 μM): 247 mp and 251 mp and 254 mp; FP(mp) (APC (303–739); Conc. 0.20 μM): 216 mp and 217 mp and 220 mp; FP(mp) (APC (303–739); Conc. 0.39 μM): 171 mp and 173 mp and 169 mp; FP(mp) (APC (303–739); Conc. 0.78 μM): 131 mp and 132 mp (2×); FP(mp) (APC (303–739); Conc. 1.56 μM): 98 mp and 97 mp and 95 mp; FP(mp) (APC (303–739); Conc. 3.13 μM): 71 mp and 73 mp and 75 mp; FP(mp) (APC (303–739); Conc. 6.25 μM): 62 mp and 60 mp and 65 mp; FP(mp) (APC (303–739); Conc. 12.50 μM): 52 mp and 53 mp and 55 mp; FP(mp) (APC (303–739); Conc. 25.00 μM): 50 mp (2×) and 55 mp; FP(mp) (APC (303–739); Conc. 50.00 μM): 47 mp and 50 mp (2×); IC50 (APC (303–739); [4]): 0.336 µM
4 | CC(C)C[C@H](NC(=O)[C@H](CO)NC(=O)[C@H](CCC(=O)O)NC(=O)CNC(=O)[C@H](C)NC(=O)c1ccccn1)C(=O)N[C@@H](Cc1ccc(O)cc1)C(=O)N[C@@H](CCC(=O)O)C(N)=O [MAI-512] (Picolinoyl-AGESLYE-NH2) | 750 ± 180 | 172 mp and 170 mp | 168 mp | 166 mp and 163 mp and 165 mp | 156 mp and 155 mp and 153 mp | 126 mp and 125 mp and 122 mp | 80 mp and 79 mp and 78 mp | 59 mp and 55 mp | 52 mp and 50 mp | 53 mp and 48 mp and 50 mp | 51 mp and 48 mp and 47 mp | 51 mp and 48 mp and 47 mp | 51 mp and 53 mp | 51 mp and 47 mp and 50 mp | 53 mp and 50 mp and 47 mp | 1.04 | 0.958 | 0.93 | 305 mp and 310 mp and 308 mp | 307 mp and 310 mp (2×) | FP(mp) (APC (303–739); Conc. 0.0244 μM): 298 mp and 303 mp and 300 mp; FP(mp) (APC (303–739); Conc. 0.05 μM): 293 mp and 300 mp and 297 mp; FP(mp) (APC (303–739); Conc. 0.10 μM): 290 mp and 286 mp and 291 mp; FP(mp) (APC (303–739); Conc. 0.20 μM): 266 mp and 274 mp and 271 mp; FP(mp) (APC (303–739); Conc. 0.39 μM): 242 mp and 240 mp and 236 mp; FP(mp) (APC (303–739); Conc. 0.78 μM): 199 mp (2×) and 200 mp; FP(mp) (APC (303–739); Conc. 1.56 μM): 160 mp and 157 mp and 158 mp; FP(mp) (APC (303–739); Conc. 3.13 μM): 119 mp (2×) and 121 mp; FP(mp) (APC (303–739); Conc. 6.25 μM): 94 mp and 89 mp and 91 mp; FP(mp) (APC (303–739); Conc. 12.50 μM): 80 mp and 77 mp and 78 mp; FP(mp) (APC (303–739); Conc. 25.00 μM): 69 mp and 66 mp and 65 mp; FP(mp) (APC (303–739); Conc. 50.00 μM): 61 mp and 57 mp and 60 mp; IC50 (APC (303–739); [4]): 0.976 µM
